ChEMBL document CHEMBL2146470, “Novel Carboxamide-Based Allosteric MEK Inhibitors: Discovery and Optimization Efforts toward XL518 (GDC-0973)” (ACS Med Chem Lett, 2012)

How the values were obtained:
[1] = biological target: Dual specificity mitogen-activated protein kinase kinase 1 (Homo sapiens, UniProt Q02750)
Description: Inhibition of MEK1-mediated ERK2 T202/Y204 phosphorylation using biotinylated MBP as substrate preincubated for 30 mins measured after 100 mins by cRAF-MEK-ERK enzyme coupled assay

[2] = biological target: Dual specificity mitogen-activated protein kinase kinase; MEK1/2 (Homo sapiens, UniProt P36507+Q02750)
Description: Inhibition of MEK-mediated ERK T202/Y204 phosphorylation in human MDA-MB-231T cells after 1 hr by immunoblotting

[3] = Drug metabolism in tumor of nude NCr mouse xenografted with human MDA-MB-231T cells assessed as 3,4-difluoro-2-(2-fluoro-4-iodophenylamino)benzoic acid level at 30 mg/kg, po measured after 24 hrs by LC-MS analysis; assay type: ADME, organism-based, Neoplasm; design: dose 30 mg/kg, route oral; conditions: in vivo
Plasma [4] = assay: Drug metabolism in plasma of nude NCr mouse xenografted with human MDA-MB-231T cells assessed as 3,4-difluoro-2-(2-fluoro-4-iodophenylamino)benzoic acid level at 30 mg/kg, po measured after 2 hrs by LC-MS analysis; assay type: ADME, organism-based; design: dose 30 mg/kg, route oral; conditions: in vivo
Brain [5] = assay: Drug metabolism in brain of nude NCr mouse xenografted with human MDA-MB-231T cells assessed as 3,4-difluoro-2-(2-fluoro-4-iodophenylamino)benzoic acid level at 30 mg/kg, po measured after 24 hrs by LC-MS analysis; assay type: ADME, organism-based; design: dose 30 mg/kg, route oral; conditions: in vivo
[6] = Drug metabolism in tumor of nude NCr mouse xenografted with human MDA-MB-231T cells assessed as 3,4-difluoro-2-(2-fluoro-4-iodophenylamino)benzoic acid level at 30 mg/kg, po measured after 2 hrs by LC-MS analysis; assay type: ADME, organism-based, Neoplasm; design: dose 30 mg/kg, route oral; conditions: in vivo
Plasma [7] = assay: Drug metabolism in plasma of nude NCr mouse xenografted with human MDA-MB-231T cells assessed as 3,4-difluoro-2-(2-fluoro-4-iodophenylamino)benzoic acid level at 30 mg/kg, po measured after 24 hrs by LC-MS analysis; assay type: ADME, organism-based; design: dose 30 mg/kg, route oral; conditions: in vivo
Brain [8] = assay: Drug metabolism in brain of nude NCr mouse xenografted with human MDA-MB-231T cells assessed as 3,4-difluoro-2-(2-fluoro-4-iodophenylamino)benzoic acid level at 30 mg/kg, po measured after 2 hrs by LC-MS analysis; assay type: ADME, organism-based; design: dose 30 mg/kg, route oral; conditions: in vivo
[9] = Drug metabolism in human liver microsomes at 15 uM after 30 mins; assay type: ADME, Microsome; conditions: read-out: Drug metabolism
[10] = Oral bioavailability in Sprague-Dawley rat at 5 mg/kg; assay type: ADME, organism-based; conditions: in vivo
[11] = Half life in Sprague-Dawley rat at 5 mg/kg, po; assay type: ADME, organism-based; design: dose 5 mg/kg, route oral; conditions: in vivo
Rattus norvegicus = assay: Dose normalised AUC (0 to t) in Sprague-Dawley rat at 5 mg/kg, po; assay type: ADME, organism-based; design: dose 5 mg/kg, route oral; conditions: in vivo
[12] = Apparent permeability across MDCK cells; assay type: ADME, cell-based, Canis lupus familiaris; conditions: dog
[13] = Drug metabolism in rat liver microsomes at 15 uM after 30 mins; assay type: ADME, Microsome; conditions: read-out: Drug metabolism
[14] = Clearance in Sprague-Dawley rat at 5 mg/kg, po; assay type: ADME, organism-based; design: dose 5 mg/kg, route oral; conditions: in vivo
[15] = Drug uptake in tumor of nude NCr mouse xenografted with human MDA-MB-231T cells at 30 mg/kg, po measured after 24 hrs by LC-MS analysis; assay type: ADME, organism-based, Neoplasm; design: dose 30 mg/kg, route oral; conditions: read-out: Drug uptake
Mus musculus [16] = assay: Inhibition of MEK-mediated ERK T202/Y204 phosphorylation in po dosed nude NCr mouse brain xenografted with human MDA-MB-231T cells from 2 to 24 hrs by immunoblotting; assay type: functional
[17] = Plasma concentration in nude NCr mouse xenografted with human MDA-MB-231T cells at 30 mg/kg, po measured after 2 hrs by LC-MS analysis; assay type: ADME, organism-based; design: dose 30 mg/kg, route oral
Mus musculus [18] = assay: Inhibition of MEK-mediated ERK T202/Y204 phosphorylation in human MDA-MB-231T cells xenografted in nude NCr mouse tumor at 30 mg/kg, po after 24 hrs by immunoblotting; assay type: functional
[19] = Plasma concentration in nude NCr mouse xenografted with human MDA-MB-231T cells at 30 mg/kg, po measured after 24 hrs by LC-MS analysis; assay type: ADME, organism-based; design: dose 30 mg/kg, route oral
Mus musculus [20] = assay: Inhibition of MEK-mediated ERK T202/Y204 phosphorylation in human MDA-MB-231T cells xenografted in nude NCr mouse tumor at 30 mg/kg, po after 2 hrs by immunoblotting; assay type: functional
[21] = Drug uptake in brain of nude NCr mouse xenografted with human MDA-MB-231T cells at 30 mg/kg, po measured after 24 hrs by LC-MS analysis; assay type: ADME, organism-based; design: dose 30 mg/kg, route oral; conditions: read-out: Drug uptake
[22] = Drug uptake in tumor of nude NCr mouse xenografted with human MDA-MB-231T cells at 30 mg/kg, po measured after 2 hrs by LC-MS analysis; assay type: ADME, organism-based, Neoplasm; design: dose 30 mg/kg, route oral; conditions: read-out: Drug uptake
Mus musculus [23] = assay: Inhibition of MEK-mediated ERK T202/Y204 phosphorylation in nude NCr mouse brain xenografted with human MDA-MB-231T cells at 30 mg/kg, po after 24 hrs by immunoblotting; assay type: functional
[24] = Drug uptake in brain of nude NCr mouse xenografted with human MDA-MB-231T cells at 30 mg/kg, po measured after 2 hrs by LC-MS analysis; assay type: ADME, organism-based; design: dose 30 mg/kg, route oral; conditions: read-out: Drug uptake
Mus musculus [25] = assay: Inhibition of MEK-mediated ERK T202/Y204 phosphorylation in nude NCr mouse brain xenografted with human MDA-MB-231T cells at 30 mg/kg, po after 2 hrs by immunoblotting; assay type: functional

Dual specificity mitogen-activated protein kinase kinase 1, sequence (Q02750 whole entry): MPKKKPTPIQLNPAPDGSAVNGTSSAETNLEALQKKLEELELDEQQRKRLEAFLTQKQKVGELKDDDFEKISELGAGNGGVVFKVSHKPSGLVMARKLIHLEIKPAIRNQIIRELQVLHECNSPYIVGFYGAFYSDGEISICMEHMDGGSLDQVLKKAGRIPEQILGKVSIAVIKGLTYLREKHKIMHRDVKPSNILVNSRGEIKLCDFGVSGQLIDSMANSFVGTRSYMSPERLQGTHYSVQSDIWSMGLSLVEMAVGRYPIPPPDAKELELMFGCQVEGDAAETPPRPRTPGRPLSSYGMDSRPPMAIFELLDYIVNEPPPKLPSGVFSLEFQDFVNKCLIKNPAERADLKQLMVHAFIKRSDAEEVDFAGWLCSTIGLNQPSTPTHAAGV

Row | SMILES | IC50 [1] | IC50 [2] | bioavailability [10] | half-life [11] | AUCt/dose (Rattus norvegicus) | Papp [12] | metabolised at 0.5 h, 15 µM [13] | CL/F [14] | also measured
1 | O=C(NCCC(O)CO)c1ccc(F)c(F)c1Nc1ccc(I)cc1F (configuration not stated) | 801 nM | 128 nM | – | – | – | – | – | – | –
2 | O=C(c1ccc(F)c(F)c1Nc1ccc(I)cc1F)N1CC(O)(CO)C1 | 27 nM | 29 nM | – | – | – | – | – | – | –
3 | NC(=O)C1(O)CN(C(=O)c2ccc(F)c(F)c2Nc2ccc(I)cc2F)C1 | 220 nM | 81 nM | – | – | – | – | – | – | –
4 | CCNCC1(O)CN(C(=O)c2ccc(F)c(F)c2Nc2ccc(I)cc2F)C1 | – | – | 101% | 5.4 h | 0.85 µM·h/mg/kg | 20.7 ×10⁻⁶ cm/s | 31.5% | 35 mL/min/kg | metabolised at 0.5 h, 15 µM [9]: 46.3%

Second part, led by results:

Row | IC50 [1] | IC50 [2] | bioavailability [10] | half-life [11] | AUCt/dose (Rattus norvegicus) | Papp [12] | metabolised at 0.5 h, 15 µM [13] | CL/F [14] | SMILES | also measured
5 | 19.5 nM | 102 nM | – | – | – | – | – | – | O=C(O)c1ccc(F)c(F)c1Nc1ccc(I)cc1F | Drug metabolism [3]: < 0.005 µM; Drug metabolism (Plasma [4]): 0.01 µM; Drug metabolism (Brain [5]): < 0.005 µM; Drug metabolism [6]: < 0.005 µM; Drug metabolism (Plasma [7]): 0.21 µM; Drug metabolism (Brain [8]): < 0.005 µM
6 | – | – | 19% | 1.5 h | 0.05 µM·h/mg/kg | 39.9 ×10⁻⁶ cm/s | 80.1% | 139 mL/min/kg | O=C(c1ccc(F)c(F)c1Nc1ccc(I)cc1F)N1CC(O)C1 | metabolised at 0.5 h, 15 µM [9]: 30.8%
7 | 6.6 nM | 57 nM | 78% | 9.1 h | 1.57 µM·h/mg/kg | 4.3 ×10⁻⁶ cm/s | 16.2% | 12.6 mL/min/kg | NCC1(O)CN(C(=O)c2ccc(F)c(F)c2Nc2ccc(I)cc2F)C1 | concentration at 24 h [15]: 26800 nM; ED50 (Mus musculus [16]): > 30 mg/kg; concentration at 2 h [17]: 2400 nM; inhibition in vivo at 30 mg/kg (Mus musculus [18]): 44%; concentration at 24 h [19]: 30 nM; inhibition in vivo at 30 mg/kg (Mus musculus [20]): 27%; concentration at 24 h [21]: 1240 nM; concentration at 2 h [22]: 7360 nM; inhibition in vivo at 30 mg/kg (Mus musculus [23]): 17%; concentration at 2 h [24]: 730 nM; inhibition in vivo at 30 mg/kg (Mus musculus [25]): 23%
